# Measured values from PubChem BioAssay (NCI).
#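 Following 48 hours of exposure in 96-well plates, responses at five concentrations were used to interpolate endpoints linearly. Abbreviation: GI50, concentration required for 50% inhibition of growth. Definition used: TGI = concentration required for complete inhibition of growth.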
# Assays:
# Test in all cases: inhibition of tumour cell growth, NCI panel, 48 h
# A498 renal = test system: A498 renal
# DU-145 prostate = test system: DU-145 prostate
# HCT-116 colon = test system: HCT-116 colon
# HL-60(TB) leukemia = test system: HL-60(TB) leukemia
# HOP-92 NSCLC = test system: HOP-92 NSCLC
# MOLT-4 leukemia = test system: MOLT-4 leukemia
# NCI-H226 lung = test system: NCI-H226 lung
# OVCAR-4 ovarian = test system: OVCAR-4 ovarian
# SF-539 CNS = test system: SF-539 CNS
# SN12C renal = test system: SN12C renal
SMILES,TGI (A498 renal),TGI (DU-145 prostate),TGI (HCT-116 colon),TGI (HL-60(TB) leukemia),TGI (HOP-92 NSCLC),TGI (MOLT-4 leukemia),TGI (NCI-H226 lung),TGI (OVCAR-4 ovarian),TGI (SF-539 CNS),TGI (SN12C renal),GI50 (A498 renal),GI50 (DU-145 prostate),GI50 (HL-60(TB) leukemia),GI50 (HOP-92 NSCLC),GI50 (MOLT-4 leukemia),GI50 (NCI-H226 lung),GI50 (OVCAR-4 ovarian),GI50 (SF-539 CNS),GI50 (SN12C renal)
N#Cc1sc2c(c1OC(=O)c1ccc(C(F)(F)F)cc1)c(=O)n(-c1ccccc1)c(=S)n2-c1ccccc1,90.2 µM,> 100 µM,74.6 µM,46.1 µM,68.4 µM,52.7 µM,99.8 µM,> 100 µM,59 µM,88.1 µM,–,–,–,–,–,–,–,–,–
CCc1n[nH]c(=O)n1-c1ccc2ccccc2c1,> 100 µM,> 100 µM,> 100 µM,–,> 100 µM,> 100 µM,> 100 µM,> 100 µM,> 100 µM,> 100 µM,–,–,–,–,–,–,–,–,–
COC1OC2COC(c3ccccc3)OC2C(O)C1OC(=S)c1ccccc1 (stereo not given),> 100 µM,> 100 µM,–,–,> 100 µM,> 100 µM,> 100 µM,> 100 µM,87.1 µM,48.4 µM,–,–,–,–,–,–,–,–,–
COc1cc2c(cc1OCCCCCN1CCN(c3ncnc4ccccc34)CC1)N=CC1CCCN1C2=O (stereo not given),0.034 µM,0.97 µM,–,–,0.069 µM,0.0706 µM,0.0479 µM,2.28 µM,0.0685 µM,4.65 µM,0.018 µM,0.0271 µM,0.0254 µM,0.0224 µM,0.0194 µM,0.0203 µM,0.0498 µM,0.0268 µM,0.03 µM
COc1cc2c(cc1OCCCN1C(=O)c3cccc4cccc(c34)C1=O)N=C[C@@H]1CCCN1C2=O,> 100 µM,> 100 µM,> 100 µM,–,> 58.2 µM,> 65.4 µM,> 100 µM,> 81.4 µM,> 100 µM,> 100 µM,–,–,–,–,–,–,–,–,–
O=C(OCC(Cl)(Cl)Cl)N1CC[C@H](C2CCCCC2)C1,–,31.8 µM,31.6 µM,–,–,50.5 µM,–,31.2 µM,–,> 100 µM,–,–,–,–,–,–,–,–,–
CC1OC(O[C@H]2C3C=CO[C@@H](OC4OC(CO)C(O)C(O)C4O)C3[C@@]3(COC(=O)/C=C/c4ccccc4)O[C@@H]23)C(O)C(O)C1O (stereo not given in full),> 100 µM,> 100 µM,> 100 µM,> 100 µM,> 100 µM,> 100 µM,> 100 µM,> 100 µM,–,> 100 µM,–,–,–,–,–,–,–,–,–
COc1cccc2c1OC(c1cccc3ccccc13)C([N+](=O)[O-])=C2 (stereo not given),–,8.9 µM,2.45 µM,> 100 µM,–,5.71 µM,4.32 µM,13 µM,–,11.2 µM,–,–,–,–,–,–,–,–,–
COc1cc(C=O)ccc1O,–,> 100 µM,> 100 µM,> 100 µM,> 100 µM,> 100 µM,> 100 µM,> 100 µM,> 100 µM,> 100 µM,–,–,–,–,–,–,–,–,–
COc1cc(Nc2ccc3c(c2)CCC3)nc(OC)n1,> 100 µM,> 100 µM,> 100 µM,> 100 µM,> 100 µM,–,> 100 µM,> 100 µM,> 100 µM,> 100 µM,–,–,–,–,–,–,–,–,–
COC(=O)c1ccccc1CC1Cc2cccc(C)c2C1=O (stereo not given),–,> 100 µM,> 100 µM,–,80.6 µM,51.2 µM,71.5 µM,> 100 µM,> 100 µM,> 100 µM,–,–,–,–,–,–,–,–,–
OC(C#CCN1CCCC1)(c1ccccc1)c1ccccc1Cl (stereo not given),66.8 µM,> 100 µM,85.2 µM,68.3 µM,–,91.2 µM,> 100 µM,80.7 µM,52.4 µM,> 100 µM,–,–,–,–,–,–,–,–,–
O=C(NCCCl)O/N=C/c1cccnc1,> 100 µM,–,> 100 µM,> 100 µM,> 100 µM,> 100 µM,> 100 µM,> 100 µM,> 100 µM,> 100 µM,78.2 µM,–,–,–,–,–,–,–,–
C=C(C)CNCCN,> 100 µM,> 100 µM,> 100 µM,> 100 µM,> 100 µM,> 100 µM,> 100 µM,> 100 µM,–,> 100 µM,–,–,–,–,–,–,–,–,–
CC1=C(C#N)c2nc3ccccc3n2C(=O)C1(C)CCO (stereo not given),> 100 µM,> 100 µM,> 100 µM,> 100 µM,> 100 µM,–,> 100 µM,> 100 µM,> 100 µM,> 100 µM,–,–,–,–,–,–,–,–,–
[N-]=[N+]=CC(=O)OC(CCl)CCl,> 100 µM,> 100 µM,> 100 µM,> 100 µM,> 100 µM,> 100 µM,> 100 µM,> 100 µM,–,> 100 µM,–,–,–,–,–,–,–,–,–
COc1ccc2oc(=N)c(C(=O)Nc3ccccc3)cc2c1,39.8 µM,> 100 µM,> 100 µM,–,–,> 100 µM,> 100 µM,> 100 µM,51.6 µM,> 100 µM,–,–,–,–,–,–,–,–,–
CSc1csc(-c2ccc(-c3ccc(-c4cc(SC)cs4)s3)s2)c1,–,–,> 100 µM,–,–,> 100 µM,> 100 µM,> 100 µM,> 100 µM,> 100 µM,–,–,–,–,–,–,–,–,–
CN(C)Cc1cc(C(=O)/C=C/c2ccc([N+](=O)[O-])cc2)cc(CN(C)C)c1O,23.9 µM,23 µM,13.1 µM,5.46 µM,26.2 µM,51.2 µM,19.2 µM,–,40.5 µM,20.2 µM,–,–,–,–,–,–,–,–,–
C/C1=C\[C@H](C)C[C@H](C)OC(=O)[C@H](C)NC(=O)[C@@H](Cc2ccc(O)c(Br)c2)N(C)C(=O)[C@H](C)NC(=O)[C@@H](C)C1,0.051 µM,> 25 µM,> 12.2 µM,–,0.177 µM,> 19.5 µM,0.787 µM,1.92 µM,0.117 µM,> 25 µM,–,–,–,–,–,–,–,–,–
O=C(CN1C(=O)CC(c2ccccc2)(c2ccccc2)C1=O)N1CCN(CCO)CC1,> 100 µM,> 100 µM,> 100 µM,–,> 100 µM,> 100 µM,–,> 100 µM,> 100 µM,> 100 µM,–,–,–,–,–,–,–,–,–
Cc1cc(OP2(=O)NCc3ncccc3O2)ccc1Cl (stereo not given),> 100 µM,> 100 µM,> 100 µM,–,> 100 µM,> 100 µM,> 100 µM,> 100 µM,> 100 µM,> 100 µM,–,–,–,–,–,–,–,–,–
